Where a SMILES comes first, the peptide text is derived from it.
Columns and labels:
FITC-labeled human IgG = assay: IgG capture test on peptide-functionalized glass slides, fluorescence imaging; assay type: binding; details: peptide immobilized via thiol-maleimide on PEG-modified epoxy glass slide; antibody 5 µg/mL in PBS, 25 °C, 3 h; ImageJ; n = 1
Protocol: Epoxy-functionalized microscope glass slides (Tekdon Incorporated, Myakka City, FL, USA) were mounted in eight-well chambers. For peptide immobilization, NH2-PEG5000-COOH linkers (Biopharma PEG, Watertown, MA, USA) were applied to each well at a concentration of 1 mg/mL in ddH2O and incubated for ~5 h. The slides were then rinsed three times with ddH2O. Carboxyl groups of NH2-PEG5000-COOH linkers were activated for 30 min using 4 µg/mL 1-ethyl-3-(3-dimethylaminopropyl) carbodiimide hydrochloride (EDC; Thermo Fisher Scientific, Waltham, MA, USA) and 6 µg/mL N-hydroxy succinimide (NHS; Thermo Fisher Scientific) in ddH2O. Upon activation, the surfaces were washed three times with 1× PBS (Gibco, Grand Island, NY, USA) and incubated for over 5 h with an excess of NH2-PEG1000-MAL linkers (1 mg/mL in 1× PBS; Biopharma PEG). […]
[…] (Abcam, Cambridge, UK) were used to evaluate the antibody-binding capacity of each functionalized surface. […] The amount of surface-captured antibody was quantified via fluorescence imaging. […] Fluorescence intensity was analyzed using Image J software (64-bit Java 8). […]
Figure 3 IgG capture assay using FITC-labeled human IgG to evaluate the Fc-binding capability of peptides. […] (C) Quantitative fluorescence intensity analysis performed using ImageJ software (64-bit Java 8). […]

α-chymotrypsin = α-chymotrypsin (Bos taurus, UniProt P00766); details: 100 μM peptide in DPBS, peptide-to-enzyme mass ratio 100:1, time points 0, 1, 5, 15, 30, 60 min, stopped with 0.1% TFA, RP-HPLC read-out
Protocol: Peptides were prepared at a concentration of 100 μM in DPBS, and α-chymotrypsin was added to achieve a final peptide-to-enzyme mass ratio of 100:1. The digestion was carried out at time points of 0, 1, 5, 15, 30, and 60 min, after which 0.1% TFA was added to terminate the reaction. The resulting samples were analyzed by reversed-phase HPLC (water/acetonitrile with 0.1% TFA) to monitor peptide stability.

| Compound | IgG-binding capacity (fluorescence intensity of captured IgG), in words (FITC-labeled human IgG) | time within which most of the peptide signal disappeared on α-chymotrypsin treatment (α-chymotrypsin) [min] |
| --- | --- | --- |
| Protein A: Fc-binding protein of Staphylococcus aureus, positive control of the IgG capture test | strong signal intensity |  |
| CSCC[C@H](NC(=O)[C@H](CC(N)=O)NC(=O)[C@@H](N)Cc1ccccc1)C(=O)N[C@@H](CCC(N)=O)C(=O)N[C@@H](C)C(=O)N[C@@H](CCC(N)=O)C(=O)N[C@@H](CCCNC(=N)N)C(=O)N[C@@H](CCCNC(=N)N)C(=O)N[C@@H](Cc1ccccc1)C(=O)N[C@@H](Cc1ccc(O)cc1)C(=O)N[C@@H](CCC(=O)O)C(=O)N[C@@H](C)C(=O)N[C@@H](CC(C)C)C(=O)N[C@@H](Cc1c[nH]cn1)C(=O)N[C@@H](CS)C(N)=O [SpA h1] (H-FNMQAQRRFYEALHC-NH2) |  | ≤ 1 |

From article PMC12729524, “Enhancement of Structural Stability and IgG Affinity of a Z34C-Derived α-Helical Peptide via Lactam Stapling” (Antibodies, 2025)
